Laboratory results reported in patent US10100022B2, “Sphingosine kinase inhibitors” (University of Virginia Patent Foundation, priority 2014, dated 2018).
Structures can show the parent of a compound that is named as a salt.

Assays:
[1] = biological target: T1, human sphingosine kinase type 2 (hSPHK2) (Homo sapiens, UniProt Q9NRA0); test: Sphingosine kinase assay, recombinant human SPHK2 ([32P]S1P product, scintillation counting); assay type: biochemical; conditions: read-out: activity hSPHK2 (range estimate of KI)
T1 construct: purchased; host or cells: Sf9 insect cells (baculovirus)
T1 sequence (Q9NRA0 1-654): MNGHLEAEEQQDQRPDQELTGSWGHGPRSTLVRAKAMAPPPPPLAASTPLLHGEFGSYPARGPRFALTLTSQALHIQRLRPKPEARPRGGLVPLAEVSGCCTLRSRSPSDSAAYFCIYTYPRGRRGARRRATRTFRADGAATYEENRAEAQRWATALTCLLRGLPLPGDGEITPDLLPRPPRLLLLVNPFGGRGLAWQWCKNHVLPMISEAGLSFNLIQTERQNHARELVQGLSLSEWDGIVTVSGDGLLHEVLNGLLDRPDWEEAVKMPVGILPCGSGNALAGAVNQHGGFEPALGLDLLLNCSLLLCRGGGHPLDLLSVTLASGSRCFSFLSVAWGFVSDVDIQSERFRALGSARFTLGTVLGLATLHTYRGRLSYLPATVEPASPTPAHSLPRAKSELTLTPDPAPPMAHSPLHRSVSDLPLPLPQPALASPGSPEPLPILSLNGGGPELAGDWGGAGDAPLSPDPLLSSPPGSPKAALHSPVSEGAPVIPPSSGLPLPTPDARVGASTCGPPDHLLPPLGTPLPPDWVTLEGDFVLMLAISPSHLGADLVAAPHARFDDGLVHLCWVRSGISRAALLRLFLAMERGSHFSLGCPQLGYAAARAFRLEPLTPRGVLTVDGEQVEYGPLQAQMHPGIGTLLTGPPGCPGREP
Experimental: (§1) Recombinant baculovirus encoding human sphingosine kinase type 1 (SPHK1) was used to infect Sf9 insect cells and after 2-5 days, cleared lysates were prepared and used without further purification. Human SPHK2, which was partially purified from baculovirus-infected Sf9 cell lysates, was purchased from a commercial source. Sphingosine kinase assays were performed using standard protocols. Product [^32P]S1P was recovered by binding to cation exchange paper and quantified by scintillation counting.

[2] = biological target: T2, human sphingosine kinase type 1 (hSPHK1) (Homo sapiens, UniProt Q9NYA1); test: Sphingosine kinase assay, recombinant human SPHK1 ([32P]S1P product, scintillation counting); assay type: biochemical; conditions: read-out: activity hSPHK1 (range estimate of KI)
T2 construct: made in house; host or cells: Sf9 insect cells (baculovirus)
Experimental: as §1

T2 sequence (Q9NYA1 whole entry): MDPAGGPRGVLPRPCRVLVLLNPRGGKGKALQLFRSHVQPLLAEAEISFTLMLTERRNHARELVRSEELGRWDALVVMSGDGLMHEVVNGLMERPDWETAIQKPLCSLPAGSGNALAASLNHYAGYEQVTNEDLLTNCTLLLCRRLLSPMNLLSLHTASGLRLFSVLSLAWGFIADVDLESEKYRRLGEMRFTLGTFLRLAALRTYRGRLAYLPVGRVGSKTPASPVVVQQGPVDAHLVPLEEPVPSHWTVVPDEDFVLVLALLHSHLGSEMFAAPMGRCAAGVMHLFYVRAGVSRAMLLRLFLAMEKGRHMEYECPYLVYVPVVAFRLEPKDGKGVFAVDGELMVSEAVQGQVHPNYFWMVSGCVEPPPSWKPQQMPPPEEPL

Row | Structure (SMILES) | Ki [1] | Ki [2]
1 | CCCCCCCCCCn1ccc2ccc(-c3noc([C@@H]4CCCN4C(=N)N)n3)cc21 [Compound 18A, (S)-amino(2-(3-(1-decyl-1H-indol-6-yl)-1,2,4-oxadiazol-5-yl)pyrrolidin-1-yl)methaniminium chloride] | 1 to 10 µM | > 10 µM
2 | N=C(N)N1C[C@H](O)C[C@H]1c1nc(-c2ccc(OCCCc3ccc4c(c3)OCCO4)c(C(F)(F)F)c2)no1 [Compound 59A] | > 10 µM | > 10 µM
3 | N=C(N)N1CCC[C@H]1c1nc(-c2ccc3cc(OCc4ccc(Cl)cc4)ccc3c2)no1 [Compound 69A, (S)-amino(2-(3-(6-((4-chlorobenzyl)oxy)naphthalen-2-yl)-1,2,4-oxadiazol-5-yl)pyrrolidin-1-yl)methaniminium chloride] | > 10 µM | > 10 µM
4 | C=CCn1c(CCCOc2ccc(-c3noc([C@@H]4[C@@H](O)CCN4C(=N)N)n3)cc2C(F)(F)F)nc2ccccc21 [Compound 47A, ((2S,3S)-2-(3-(4-(3-(1-allyl-1H-benzo[d]imidazol-2-yl)propoxy)-3-(trifluoromethyl)phenyl)-1,2,4-oxadiazol-5-yl)-3-hydroxypyrrolidin-1-yl)(amino)methaniminium chloride] | 1 to 10 µM | > 10 µM
5 | N=C(N)N1CCC[C@H]1c1nc(-c2ccc(OC/C=C/c3cccc(C(F)(F)F)c3)c(C(F)(F)F)c2)no1 [Compound 90A, (S,E)-amino(2-(3-(3-(trifluoromethyl)-4-((3-(3-(trifluoromethyl)phenyl)allyl)oxy)phenyl)-1,2,4-oxadiazol-5-yl)pyrrolidin-1-yl)methaniminium 2,2,2-trifluoroacetate] | < 1 µM | > 10 µM
6 | CCCCCCCCOc1ccc(-c2noc([C@@H]3C[C@H](O)CN3C(=N)N)n2)cc1C(F)(F)F [Compound 9A, amino((2S,4S)-4-hydroxy-2-(3-(4-(octyloxy)-3-(trifluoromethyl)phenyl)-1,2,4-oxadiazol-5-yl)pyrrolidin-1-yl)methaniminium chloride] | > 10 µM | > 10 µM
7 | N=C(N)N1CCC[C@H]1c1nc(-c2ccc3cc(OCCc4ccccc4C(F)(F)F)ccc3c2)no1 [Compound 55A, (S)-amino(2-(3-(6-(2-(trifluoromethyl)phenethoxy)naphthalen-2-yl)-1,2,4-oxadiazol-5-yl)pyrrolidin-1-yl)methaniminium chloride] | > 10 µM | > 10 µM
8 | N=C(N)N1CCC[C@H]1c1nc(-c2ccc(CCC3CCCC3)c(C(F)(F)F)c2)no1 [Compound 44A, (S)-2-(3-(4-(2-cyclopentylethyl)-3-(trifluoromethyl)phenyl)-1,2,4-oxadiazol-5-yl)pyrrolidine-1-carboximidamide hydrochloride] | 1 to 10 µM | > 10 µM
9 | C=CCCOc1ccc(-c2noc([C@@H]3CCCN3C(=N)N)n2)cc1C(F)(F)F [Compound 79A, (S)-2-(3-(4-(but-3-en-1-yloxy)-3-(trifluoromethyl)phenyl)-1,2,4-oxadiazol-5-yl)pyrrolidine-1-carboximidamide hydrochloride] | > 10 µM | > 10 µM
10 | CCCCCCCCCn1ccc2c(-c3noc([C@@H]4CCCN4C(=N)N)n3)cccc21 [Compound 10B, (S)-amino(2-(3-(1-nonyl-1H-indol-4-yl)-1,2,4-oxadiazol-5-yl)pyrrolidin-1-yl)methaniminium chloride] | < 1 µM | > 10 µM
11 | N=C(N)N1CCC[C@H]1c1nc(-c2ccc3cc(OCc4cccc(Cl)c4)ccc3c2)no1 [Compound 68A, (S)-amino(2-(3-(6-((3-chlorobenzyl)oxy)naphthalen-2-yl)-1,2,4-oxadiazol-5-yl)pyrrolidin-1-yl)methaniminium chloride] | > 10 µM | > 10 µM
12 | N=C(N)N1CCC[C@H]1c1nc(-c2ccc3cc(OCc4ccccc4)ccc3c2)no1 [Compound 73A, (S)-amino(2-(3-(6-(benzyloxy)naphthalen-2-yl)-1,2,4-oxadiazol-5-yl)pyrrolidin-1-yl)methaniminium chloride] | > 10 µM | > 10 µM
13 | CCCCCCOc1ccc(-c2noc([C@@H]3CCCN3C(=N)N)n2)cc1C(F)(F)F [Compound 12B] | < 1 µM | 1 to 10 µM
14 | N=C(N)N1CC[C@H](O)[C@H]1c1nc(-c2ccc(OCCCc3ccc4c(c3)OCCO4)c(C(F)(F)F)c2)no1 [Compound 27A] | 1 to 10 µM | > 10 µM
15 | CCc1ccc(CCc2ccc(-c3noc([C@@H]4CCCN4C(=N)N)n3)cc2C(F)(F)F)cc1 [Compound 50A, (S)-2-(3-(4-(4-ethylphenethyl)-3-(trifluoromethyl)phenyl)-1,2,4-oxadiazol-5-yl)pyrrolidine-1-carboximidamide hydrochloride] | < 1 µM | > 10 µM
16 | N=C(N)N1C[C@H](O)C[C@H]1c1nc(-c2ccc(OCCCc3ccc(Cl)c(Cl)c3)c(C(F)(F)F)c2)no1 [Compound 31A, amino((2S,4R)-2-(3-(4-(3-(3,4-dichlorophenyl)propoxy)-3-(trifluoromethyl)phenyl)-1,2,4-oxadiazol-5-yl)-4-hydroxypyrrolidin-1-yl)methaniminium chloride] | < 1 µM | > 10 µM
17 | CCCCCCCCCCn1ccc2c(-c3noc([C@@H]4CCCN4C(=N)N)n3)cccc21 [Compound 11B, (S)-amino(2-(3-(1-decyl-1H-indol-4-yl)-1,2,4-oxadiazol-5-yl)pyrrolidin-1-yl)methaniminium chloride] | < 1 µM | > 10 µM
18 | N=C(N)N1CCC[C@H]1c1nc(-c2ccc(OCC/C=C/c3ccc(C(F)(F)F)cc3)c(C(F)(F)F)c2)no1 [Compound 91A, (S,E)-2-(3-(3-(trifluoromethyl)-4-((4-(4-(trifluoromethyl)phenyl)but-3-en-1-yl)oxy)phenyl)-1,2,4-oxadiazol-5-yl)pyrrolidine-1-carboximidamide hydrochloride] | < 1 µM | > 10 µM
19 | CCCCCCCCCCCn1cc(-c2noc([C@@H]3CCCN3C(=N)N)n2)c2ccccc21 [Compound 4A, (S)-amino(2-(3-(1-undecyl-1H-indol-3-yl)-1,2,4-oxadiazol-5-yl)pyrrolidin-1-yl)methaniminium chloride] | 1 to 10 µM | > 10 µM
20 | CCCCCCCCn1ccc2c(-c3noc([C@@H]4CCCN4C(=N)N)n3)cccc21 [Compound 9B, (S)-amino(2-(3-(1-octyl-1H-indol-4-yl)-1,2,4-oxadiazol-5-yl)pyrrolidin-1-yl)methaniminium chloride] | < 1 µM | > 10 µM
21 | N=C(N)N1CCC[C@H]1c1nc(-c2ccc(OC/C=C/c3cccc(Br)c3)c(C(F)(F)F)c2)no1 [Compound 86A, (S,E)-2-(3-(4-((3-(3-bromophenyl)allyl)oxy)-3-(trifluoromethyl)phenyl)-1,2,4-oxadiazol-5-yl)pyrrolidine-1-carboximidamide hydrochloride] | < 1 µM | > 10 µM
22 | N=C(N)N1CC[C@H](O)[C@H]1c1nc(-c2ccc(OCc3ccc(C(F)(F)F)cc3)c(C(F)(F)F)c2)no1 [Compound 24A, amino((2S,3S)-3-hydroxy-2-(3-(3-(trifluoromethyl)-4-((4-(trifluoromethyl)benzyl)oxy)phenyl)-1,2,4-oxadiazol-5-yl)pyrrolidin-1-yl)methaniminium chloride] | < 1 µM | 1 to 10 µM
23 | N=C(N)N1CC[C@H](O)[C@H]1c1nc(-c2ccc(OCCc3ccc(C(F)(F)F)cc3)c(C(F)(F)F)c2)no1 [Compound 23A, amino((2S,3S)-3-hydroxy-2-(3-(3-(trifluoromethyl)-4-(4-(trifluoromethyl)phenethoxy)phenyl)-1,2,4-oxadiazol-5-yl)pyrrolidin-1-yl)methaniminium chloride] | < 1 µM | 1 to 10 µM
24 | N=C(N)N1CCC[C@H]1c1nc(-c2ccc(CCC3CCCCC3)c(C(F)(F)F)c2)no1 [Compound 76A, (S)-amino(2-(3-(4-(2-cyclohexylethyl)-3-(trifluoromethyl)phenyl)-1,2,4-oxadiazol-5-yl)pyrrolidin-1-yl)methaniminium 2,2,2-trifluoroacetate] | < 1 µM | > 10 µM
25 | CCC/C=C\CCOc1ccc(-c2noc([C@@H]3CCCN3C(=N)N)n2)cc1C(F)(F)F [Compound 84A, (S,Z)-amino(2-(3-(4-(hept-3-en-1-yloxy)-3-(trifluoromethyl)phenyl)-1,2,4-oxadiazol-5-yl)pyrrolidin-1-yl)methaniminium 2,2,2-trifluoroacetate] | < 1 µM | > 10 µM
26 | COc1ccc(CCc2ccc(-c3noc([C@@H]4CCCN4C(=N)N)n3)cc2C(F)(F)F)cc1 [Compound 42A, (S)-2-(3-(4-(4-methoxyphenethyl)-3-(trifluoromethyl)phenyl)-1,2,4-oxadiazol-5-yl)pyrrolidine-1-carboximidamide hydrochloride] | < 1 µM | > 10 µM
